Results: the kinase profiling compilation of Christmann-Franck et al. (2016)
Values joined by “and” are separate entries in the source; they are usually repeats but may differ in a detail not shown here. Equal values may be shown once.

Experiments:
Assay in all cases: radiometric filter-binding kinase assay, Kinase HotSpot
Conditions in all cases: compound 0.5 µM; ATP 10 µM
GSG2 (human) = GSG2 (human) (UniProt Q8TF76)
PRKD2 (human) = PRKD2 (human) (UniProt Q9BZL6)
DYRK1A (human) = DYRK1A (human) (UniProt Q13627)
FES (human) = FES (human) (UniProt P07332)
MAPK13 (human) = MAPK13 (human) (UniProt O15264)
ABL2 (human) = ABL2 (human) (UniProt P42684)
EPHA8 (human) = EPHA8 (human) (UniProt P29322)
DDR2 (human) = DDR2 (human) (UniProt Q16832)
TBK1 (human) = TBK1 (human) (UniProt Q9UHD2)
IGF1R (human) = IGF1R (human) (UniProt P08069)
PRKG1 (human) = PRKG1 (human) (UniProt Q13976)
PRKG1 (human), sequence (Q13976 whole entry, looked up): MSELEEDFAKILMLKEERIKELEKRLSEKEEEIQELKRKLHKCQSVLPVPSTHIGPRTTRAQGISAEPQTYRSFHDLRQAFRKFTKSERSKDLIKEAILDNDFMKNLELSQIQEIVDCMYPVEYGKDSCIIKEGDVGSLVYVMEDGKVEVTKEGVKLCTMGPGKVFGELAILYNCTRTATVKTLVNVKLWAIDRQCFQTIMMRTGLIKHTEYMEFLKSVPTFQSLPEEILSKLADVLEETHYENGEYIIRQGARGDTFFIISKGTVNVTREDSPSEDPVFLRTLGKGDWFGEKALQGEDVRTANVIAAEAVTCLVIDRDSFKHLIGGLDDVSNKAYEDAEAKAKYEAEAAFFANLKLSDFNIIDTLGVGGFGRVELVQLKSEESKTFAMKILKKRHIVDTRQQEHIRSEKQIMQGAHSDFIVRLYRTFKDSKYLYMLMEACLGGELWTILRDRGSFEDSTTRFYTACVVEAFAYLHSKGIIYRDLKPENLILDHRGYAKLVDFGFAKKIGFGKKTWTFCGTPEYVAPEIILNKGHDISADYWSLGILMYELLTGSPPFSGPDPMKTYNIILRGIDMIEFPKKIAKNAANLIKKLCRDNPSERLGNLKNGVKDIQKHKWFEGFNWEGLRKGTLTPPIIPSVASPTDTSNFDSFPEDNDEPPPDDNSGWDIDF

BTK (human) = BTK (human) (UniProt Q06187)
DAPK1 (human) = DAPK1 (human) (UniProt P53355)
EPHA3 (human) = EPHA3 (human) (UniProt P29320)
PTK2B (human) = PTK2B (human) (UniProt Q14289)
MAP2K2 (human) = MAP2K2 (human) (UniProt P36507)
RPS6KA3 KD1 KD2 (human) = RPS6KA3 KD1 KD2 (human) (UniProt P51812)
CSNK2A2 (human) = CSNK2A2 (human) (UniProt P19784)
CDK4 CCND3 (human) = CDK4 CCND3 (human) (UniProt P30281+P11802)
CHUK (human) = CHUK (human) (UniProt O15111)
EPHA1 (human) = EPHA1 (human) (UniProt P21709)
EPHA1 (human), sequence (P21709 whole entry, looked up): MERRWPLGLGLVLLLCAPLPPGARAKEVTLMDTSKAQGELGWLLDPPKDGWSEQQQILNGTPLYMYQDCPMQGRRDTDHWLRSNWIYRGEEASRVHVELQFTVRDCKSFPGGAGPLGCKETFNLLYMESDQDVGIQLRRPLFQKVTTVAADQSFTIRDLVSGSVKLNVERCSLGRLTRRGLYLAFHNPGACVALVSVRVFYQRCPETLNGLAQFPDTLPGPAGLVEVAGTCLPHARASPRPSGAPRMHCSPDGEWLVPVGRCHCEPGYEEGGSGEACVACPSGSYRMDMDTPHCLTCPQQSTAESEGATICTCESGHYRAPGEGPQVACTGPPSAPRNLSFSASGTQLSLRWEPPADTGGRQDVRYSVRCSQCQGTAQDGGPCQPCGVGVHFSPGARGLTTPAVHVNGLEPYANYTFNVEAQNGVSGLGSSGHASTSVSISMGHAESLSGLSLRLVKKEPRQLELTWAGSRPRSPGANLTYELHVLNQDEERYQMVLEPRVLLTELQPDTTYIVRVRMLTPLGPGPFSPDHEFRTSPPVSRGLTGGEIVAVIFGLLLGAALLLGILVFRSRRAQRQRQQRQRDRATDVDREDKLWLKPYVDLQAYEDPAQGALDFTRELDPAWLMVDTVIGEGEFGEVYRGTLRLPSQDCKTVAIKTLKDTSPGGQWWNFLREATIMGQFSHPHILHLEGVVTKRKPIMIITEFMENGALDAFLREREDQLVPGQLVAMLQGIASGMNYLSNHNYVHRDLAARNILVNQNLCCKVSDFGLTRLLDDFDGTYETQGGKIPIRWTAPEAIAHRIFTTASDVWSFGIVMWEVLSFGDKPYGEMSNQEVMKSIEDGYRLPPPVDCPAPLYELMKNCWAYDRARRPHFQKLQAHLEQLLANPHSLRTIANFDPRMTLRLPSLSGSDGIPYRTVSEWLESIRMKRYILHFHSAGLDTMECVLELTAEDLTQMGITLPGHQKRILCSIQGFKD

MARK1 (human) = MARK1 (human) (UniProt Q9P0L2)
GSK3A (human) = GSK3A (human) (UniProt P49840)
CAMK2B (human) = CAMK2B (human) (UniProt Q13554)
MAP3K2 (human) = MAP3K2 (human) (UniProt Q9Y2U5)
MAP3K2 (human), sequence (Q9Y2U5 whole entry, looked up): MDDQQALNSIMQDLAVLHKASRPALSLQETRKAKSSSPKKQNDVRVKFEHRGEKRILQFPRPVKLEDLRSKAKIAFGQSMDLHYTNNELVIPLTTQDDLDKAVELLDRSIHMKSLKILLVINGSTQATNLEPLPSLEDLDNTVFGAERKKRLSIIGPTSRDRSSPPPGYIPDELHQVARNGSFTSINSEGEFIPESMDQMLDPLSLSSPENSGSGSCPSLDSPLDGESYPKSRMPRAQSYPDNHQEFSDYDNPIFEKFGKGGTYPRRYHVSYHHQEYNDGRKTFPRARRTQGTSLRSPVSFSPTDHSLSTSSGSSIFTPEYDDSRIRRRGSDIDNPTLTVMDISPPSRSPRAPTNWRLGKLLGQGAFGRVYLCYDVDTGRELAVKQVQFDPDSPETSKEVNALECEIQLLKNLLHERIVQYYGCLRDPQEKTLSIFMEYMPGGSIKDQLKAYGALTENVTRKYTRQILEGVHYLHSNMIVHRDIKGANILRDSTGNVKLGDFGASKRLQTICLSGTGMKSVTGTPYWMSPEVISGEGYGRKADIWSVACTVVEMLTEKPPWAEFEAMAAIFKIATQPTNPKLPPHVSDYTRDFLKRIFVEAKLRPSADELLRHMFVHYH

STK25 (human) = STK25 (human) (UniProt O00506)
CSNK1G2 (human) = CSNK1G2 (human) (UniProt P78368)
NUAK2 (human) = NUAK2 (human) (UniProt Q9H093)
NUAK2 (human), sequence (Q9H093 whole entry, looked up): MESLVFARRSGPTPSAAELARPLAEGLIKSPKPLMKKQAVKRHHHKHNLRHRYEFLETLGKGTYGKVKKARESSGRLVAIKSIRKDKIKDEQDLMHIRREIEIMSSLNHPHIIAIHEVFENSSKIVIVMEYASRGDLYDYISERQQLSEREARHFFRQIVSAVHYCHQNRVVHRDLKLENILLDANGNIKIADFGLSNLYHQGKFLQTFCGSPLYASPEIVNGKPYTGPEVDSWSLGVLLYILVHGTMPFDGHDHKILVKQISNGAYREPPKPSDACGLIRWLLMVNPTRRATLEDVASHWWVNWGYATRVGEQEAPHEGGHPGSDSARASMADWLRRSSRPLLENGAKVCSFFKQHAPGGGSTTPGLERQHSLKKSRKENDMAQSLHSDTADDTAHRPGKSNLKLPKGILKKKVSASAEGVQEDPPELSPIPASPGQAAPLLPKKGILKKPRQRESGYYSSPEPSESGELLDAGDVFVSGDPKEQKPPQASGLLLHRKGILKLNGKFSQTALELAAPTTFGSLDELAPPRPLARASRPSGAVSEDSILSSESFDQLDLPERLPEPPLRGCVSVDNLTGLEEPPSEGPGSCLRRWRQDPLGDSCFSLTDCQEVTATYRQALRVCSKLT

MERTK (human) = MERTK (human) (UniProt Q12866)
SRPK2 (human) = SRPK2 (human) (UniProt P78362)
RET (human) = RET (human) (UniProt P07949)
NUAK1 (human) = NUAK1 (human) (UniProt O60285)
NTRK2 (human) = NTRK2 (human) (UniProt Q16620)
HIPK4 (human) = HIPK4 (human) (UniProt Q8NE63)
NTRK3 (human) = NTRK3 (human) (UniProt Q16288)
EPHB2 (human) = EPHB2 (human) (UniProt P29323)
NEK7 (human) = NEK7 (human) (UniProt Q8TDX7)
NEK7 (human), sequence (Q8TDX7 whole entry, looked up): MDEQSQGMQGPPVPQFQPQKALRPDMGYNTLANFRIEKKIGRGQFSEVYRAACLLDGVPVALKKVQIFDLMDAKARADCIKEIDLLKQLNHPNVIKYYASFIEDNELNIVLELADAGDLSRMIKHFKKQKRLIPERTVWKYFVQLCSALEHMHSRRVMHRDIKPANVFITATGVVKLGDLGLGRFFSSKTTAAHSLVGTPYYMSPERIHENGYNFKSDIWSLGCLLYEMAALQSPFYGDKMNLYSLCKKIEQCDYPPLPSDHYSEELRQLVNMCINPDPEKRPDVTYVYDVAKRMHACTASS

EPHA2 (human) = EPHA2 (human) (UniProt P29317)
[1] = molecular target: JAK1 JH1 catalytic (human) (UniProt P23458)
MAP3K9 (human) = MAP3K9 (human) (UniProt P80192)
MAP3K9 (human), sequence (P80192 whole entry, looked up): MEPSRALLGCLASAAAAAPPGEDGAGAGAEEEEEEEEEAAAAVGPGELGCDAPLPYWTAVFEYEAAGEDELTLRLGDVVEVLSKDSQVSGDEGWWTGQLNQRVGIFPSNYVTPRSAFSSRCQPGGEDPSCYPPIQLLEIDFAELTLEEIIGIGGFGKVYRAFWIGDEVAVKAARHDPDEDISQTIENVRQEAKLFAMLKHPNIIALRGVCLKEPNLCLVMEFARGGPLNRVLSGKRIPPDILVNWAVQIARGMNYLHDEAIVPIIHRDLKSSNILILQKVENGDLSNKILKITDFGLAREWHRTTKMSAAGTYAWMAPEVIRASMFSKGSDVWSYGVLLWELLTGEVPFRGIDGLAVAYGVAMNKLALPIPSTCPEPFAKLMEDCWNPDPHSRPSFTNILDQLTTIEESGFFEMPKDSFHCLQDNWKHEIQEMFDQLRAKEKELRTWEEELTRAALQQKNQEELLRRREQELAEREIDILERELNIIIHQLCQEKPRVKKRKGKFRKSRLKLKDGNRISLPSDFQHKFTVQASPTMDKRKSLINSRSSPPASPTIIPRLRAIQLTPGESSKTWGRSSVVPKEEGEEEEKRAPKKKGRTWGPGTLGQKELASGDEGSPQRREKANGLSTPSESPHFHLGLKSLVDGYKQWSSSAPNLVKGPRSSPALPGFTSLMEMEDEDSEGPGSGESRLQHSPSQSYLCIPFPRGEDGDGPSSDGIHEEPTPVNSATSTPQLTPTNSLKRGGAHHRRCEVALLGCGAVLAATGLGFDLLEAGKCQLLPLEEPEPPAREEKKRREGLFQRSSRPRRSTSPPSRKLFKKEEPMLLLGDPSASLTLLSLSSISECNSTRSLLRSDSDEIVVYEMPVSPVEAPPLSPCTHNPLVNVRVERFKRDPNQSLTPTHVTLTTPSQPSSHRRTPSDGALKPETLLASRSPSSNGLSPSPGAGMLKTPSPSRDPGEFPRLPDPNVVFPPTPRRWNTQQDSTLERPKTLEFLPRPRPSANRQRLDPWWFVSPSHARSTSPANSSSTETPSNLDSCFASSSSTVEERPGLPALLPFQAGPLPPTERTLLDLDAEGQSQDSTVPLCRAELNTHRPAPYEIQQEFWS

TSSK1B (human) = TSSK1B (human) (UniProt Q9BXA7)
TSSK1B (human), sequence (Q9BXA7 whole entry, looked up): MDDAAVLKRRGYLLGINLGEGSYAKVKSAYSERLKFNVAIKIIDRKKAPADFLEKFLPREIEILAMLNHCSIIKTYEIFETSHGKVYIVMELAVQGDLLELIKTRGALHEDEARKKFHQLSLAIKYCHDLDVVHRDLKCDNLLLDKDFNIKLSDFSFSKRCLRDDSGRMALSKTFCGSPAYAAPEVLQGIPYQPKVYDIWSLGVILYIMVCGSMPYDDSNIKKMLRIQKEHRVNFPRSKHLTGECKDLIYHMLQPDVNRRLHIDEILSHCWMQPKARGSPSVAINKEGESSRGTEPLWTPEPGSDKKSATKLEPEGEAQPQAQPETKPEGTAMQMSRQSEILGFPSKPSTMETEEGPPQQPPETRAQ

CAMK1D (human) = CAMK1D (human) (UniProt Q8IU85)
CAMK1D (human), sequence (Q8IU85 whole entry, looked up): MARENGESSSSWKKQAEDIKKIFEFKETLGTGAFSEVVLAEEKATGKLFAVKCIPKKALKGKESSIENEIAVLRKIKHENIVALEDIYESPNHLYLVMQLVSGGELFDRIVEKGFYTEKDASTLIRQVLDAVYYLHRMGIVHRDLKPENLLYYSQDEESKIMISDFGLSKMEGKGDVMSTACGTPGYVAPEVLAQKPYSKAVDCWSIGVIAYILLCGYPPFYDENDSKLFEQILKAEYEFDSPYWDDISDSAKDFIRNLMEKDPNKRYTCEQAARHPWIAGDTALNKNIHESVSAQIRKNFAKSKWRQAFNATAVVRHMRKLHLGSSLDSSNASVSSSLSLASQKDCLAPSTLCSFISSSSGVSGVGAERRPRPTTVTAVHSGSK

With `Cc1cc(Nc2nc(-c3ccccc3)nc3ccccc23)n[nH]1` the residual activity (GSG2 (human)) was 90.5%, the residual activity (PRKD2 (human)) was 75.9% and the residual activity (DYRK1A (human)) was 104%. The residual activity (FES (human)) was 94.7%, the residual activity (MAPK13 (human)) was 106% and the residual activity (ABL2 (human)) was 42.5%. For the same molecule, the residual activity (EPHA8 (human)) was 98.2%, the residual activity (DDR2 (human)) was 93.2% and the residual activity (TBK1 (human)) was 53.8%. For the same molecule, the residual activity (IGF1R (human)) was 70.8%, the residual activity (PRKG1 (human)) was 94.9% and 97.3% and the residual activity (BTK (human)) was 43.4%. For the same molecule, the residual activity (DAPK1 (human)) was 39.1%, the residual activity (EPHA3 (human)) was 88.9% and the residual activity (PTK2B (human)) was 61.4%. For the same molecule, the residual activity (MAP2K2 (human)) was 102%, the residual activity (RPS6KA3 KD1 KD2 (human)) was 66.1% and the residual activity (CSNK2A2 (human)) was 15%. It also gave a residual activity (CDK4 CCND3 (human)) of 94.4%, a residual activity (CHUK (human)) of 96.5% and a residual activity (EPHA1 (human)) of 69.9%. For the same molecule, the residual activity (MARK1 (human)) was 93.7%, the residual activity (GSK3A (human)) was 11.3% and the residual activity (CAMK2B (human)) was 97.7%. It also gave a residual activity (MAP3K2 (human)) of 78.4%, a residual activity (STK25 (human)) of 86.7% and a residual activity (CSNK1G2 (human)) of 69.3%. It also gave a residual activity (NUAK2 (human)) of 71.1%, a residual activity (MERTK (human)) of 72.2% and a residual activity (SRPK2 (human)) of 68.8%. For the same molecule, the residual activity (RET (human)) was 8.76%, the residual activity (NUAK1 (human)) was 3.88% and the residual activity (NTRK2 (human)) was 4.37%. It also gave a residual activity (HIPK4 (human)) of 102%, a residual activity (NTRK3 (human)) of 2.01% and a residual activity (EPHB2 (human)) of 76.7%. The residual activity (NEK7 (human)) was 97.7%, the residual activity (EPHA2 (human)) was 94.8% and the residual activity [1] was 83.7%. The residual activity (MAP3K9 (human)) was 14.8%, the residual activity (TSSK1B (human)) was 76.7% and the residual activity (CAMK1D (human)) was 85.4%.
`O=C1NC(=O)c2cc(Nc3ccc(F)cc3)c(Nc3ccc(F)cc3)cc21` showed a residual activity (GSG2 (human)) of 95.1%, a residual activity (PRKD2 (human)) of 86.8% and a residual activity (DYRK1A (human)) of 95.6%. For the same molecule, the residual activity (FES (human)) was 99.5%, the residual activity (MAPK13 (human)) was 99.4% and the residual activity (ABL2 (human)) was 89.6%. For the same molecule, the residual activity (EPHA8 (human)) was 95.5%, the residual activity (DDR2 (human)) was 99.6% and the residual activity (TBK1 (human)) was 101%. For the same molecule, the residual activity (IGF1R (human)) was 102%, the residual activity (PRKG1 (human)) was 103% and 94.3% and the residual activity (BTK (human)) was 94.3%. The residual activity (DAPK1 (human)) was 81.3%, the residual activity (EPHA3 (human)) was 96.6% and the residual activity (PTK2B (human)) was 111%. For the same molecule, the residual activity (MAP2K2 (human)) was 89.5%, the residual activity (RPS6KA3 KD1 KD2 (human)) was 118% and the residual activity (CSNK2A2 (human)) was 104%. For the same molecule, the residual activity (CDK4 CCND3 (human)) was 99%, the residual activity (CHUK (human)) was 99.2% and the residual activity (EPHA1 (human)) was 97.4%. For the same molecule, the residual activity (MARK1 (human)) was 98.9%, the residual activity (GSK3A (human)) was 88.2% and the residual activity (CAMK2B (human)) was 98.7%. For the same molecule, the residual activity (MAP3K2 (human)) was 94.8%, the residual activity (STK25 (human)) was 101% and the residual activity (CSNK1G2 (human)) was 97.5%. It also gave a residual activity (NUAK2 (human)) of 112%, a residual activity (MERTK (human)) of 97.4% and a residual activity (SRPK2 (human)) of 92.3%. For the same molecule, the residual activity (RET (human)) was 104%, the residual activity (NUAK1 (human)) was 94% and the residual activity (NTRK2 (human)) was 91.9%. The residual activity (HIPK4 (human)) was 82.5%, the residual activity (NTRK3 (human)) was 95.6% and the residual activity (EPHB2 (human)) was 89.3%. For the same molecule, the residual activity (NEK7 (human)) was 103%, the residual activity (EPHA2 (human)) was 94.3% and the residual activity [1] was 91.5%. It also gave a residual activity (MAP3K9 (human)) of 102%, a residual activity (TSSK1B (human)) of 90.2% and a residual activity (CAMK1D (human)) of 78.1%.
Work on `O=C(c1ccccc1)c1ccc(N2CCOCC2)cc1O` yielded a residual activity (GSG2 (human)) of 98.5%, a residual activity (PRKD2 (human)) of 99.1% and a residual activity (DYRK1A (human)) of 101%. For the same molecule, the residual activity (FES (human)) was 95.2%, the residual activity (MAPK13 (human)) was 106% and the residual activity (ABL2 (human)) was 105%. For the same molecule, the residual activity (DDR2 (human)) was 103%, the residual activity (TBK1 (human)) was 100% and the residual activity (IGF1R (human)) was 106%. For the same molecule, the residual activity (PRKG1 (human)) was 86.8% and 96.4%, the residual activity (BTK (human)) was 103% and the residual activity (DAPK1 (human)) was 92.5%. It also gave a residual activity (EPHA3 (human)) of 105%, a residual activity (PTK2B (human)) of 102% and a residual activity (MAP2K2 (human)) of 101%. The residual activity (RPS6KA3 KD1 KD2 (human)) was 104%, the residual activity (CSNK2A2 (human)) was 96.8% and the residual activity (CDK4 CCND3 (human)) was 96.2%. The residual activity (CHUK (human)) was 101%, the residual activity (EPHA1 (human)) was 89.1% and the residual activity (MARK1 (human)) was 97.6%. The residual activity (GSK3A (human)) was 102%, the residual activity (CAMK2B (human)) was 105% and the residual activity (MAP3K2 (human)) was 102%. The residual activity (STK25 (human)) was 100%, the residual activity (CSNK1G2 (human)) was 96.1% and the residual activity (NUAK2 (human)) was 111%. For the same molecule, the residual activity (MERTK (human)) was 94.5%, the residual activity (SRPK2 (human)) was 102% and the residual activity (RET (human)) was 97.8%. For the same molecule, the residual activity (NUAK1 (human)) was 94.9%, the residual activity (NTRK2 (human)) was 92.7% and the residual activity (HIPK4 (human)) was 99.5%. For the same molecule, the residual activity (NTRK3 (human)) was 93.7%, the residual activity (EPHB2 (human)) was 94.9% and the residual activity (NEK7 (human)) was 104%. It also gave a residual activity (EPHA2 (human)) of 104%, a residual activity [1] of 108% and a residual activity (MAP3K9 (human)) of 112%. It also gave a residual activity (TSSK1B (human)) of 107% and a residual activity (CAMK1D (human)) of 99.1%.
`N#C/C(=C1/Nc2ccccc2S1)c1ccnc(NCCc2cccnc2)n1` showed a residual activity (GSG2 (human)) of 31%, a residual activity (PRKD2 (human)) of 79.2% and a residual activity (DYRK1A (human)) of 52.7%. The residual activity (FES (human)) was 92.8%, the residual activity (MAPK13 (human)) was 100% and the residual activity (ABL2 (human)) was 98.8%. For the same molecule, the residual activity (EPHA8 (human)) was 98.5%, the residual activity (DDR2 (human)) was 94.5% and the residual activity (TBK1 (human)) was 100%. For the same molecule, the residual activity (IGF1R (human)) was 100%, the residual activity (PRKG1 (human)) was 97.5% and 99.4% and the residual activity (BTK (human)) was 88.8%. For the same molecule, the residual activity (DAPK1 (human)) was 99.3%, the residual activity (EPHA3 (human)) was 75.1% and the residual activity (PTK2B (human)) was 98.7%. The residual activity (MAP2K2 (human)) was 76.2%, the residual activity (CSNK2A2 (human)) was 27.1% and the residual activity (CDK4 CCND3 (human)) was 85.7%. It also gave a residual activity (CHUK (human)) of 88.6%, a residual activity (EPHA1 (human)) of 95.5% and a residual activity (MARK1 (human)) of 97.6%. It also gave a residual activity (GSK3A (human)) of 2.42%, a residual activity (CAMK2B (human)) of 97.3% and a residual activity (MAP3K2 (human)) of 98.1%. For the same molecule, the residual activity (STK25 (human)) was 97.7%, the residual activity (CSNK1G2 (human)) was 87% and the residual activity (NUAK2 (human)) was 72.5%. For the same molecule, the residual activity (MERTK (human)) was 88.9%, the residual activity (SRPK2 (human)) was 97.1% and the residual activity (RET (human)) was 70.1%. The residual activity (NUAK1 (human)) was 91.8%, the residual activity (NTRK2 (human)) was 93.2% and the residual activity (HIPK4 (human)) was 97.6%. For the same molecule, the residual activity (NTRK3 (human)) was 80.2%, the residual activity (EPHB2 (human)) was 112% and the residual activity (NEK7 (human)) was 88.2%. The residual activity (EPHA2 (human)) was 103%, the residual activity [1] was 113% and the residual activity (MAP3K9 (human)) was 100%. For the same molecule, the residual activity (TSSK1B (human)) was 99% and the residual activity (CAMK1D (human)) was 108%.
